According to ChEMBL document CHEMBL1150976, “The selectivity of protein kinase inhibitors: a further update” (Biochem J, 2007):

Key:
[1] = biological target: Ribosomal protein S6 kinase alpha-5 (Homo sapiens) (UniProt O75582); experiment: Percentage MSK1 activity remaining in the presence of 0.1uM inhibitor
[2] = biological target: Serine/threonine-protein kinase Chk2 (Homo sapiens) (UniProt O96017); experiment: Percentage CHK2 activity remaining in the presence of 0.1uM inhibitor
[3] = biological target: MAP kinase-interacting serine/threonine-protein kinase 2 (Homo sapiens) (UniProt Q9HBH9); experiment: Percentage MNK2 activity remaining in the presence of 0.1uM inhibitor
Chain of MAP kinase-interacting serine/threonine-protein kinase 2 (Homo sapiens) (Q9HBH9 whole entry, looked up): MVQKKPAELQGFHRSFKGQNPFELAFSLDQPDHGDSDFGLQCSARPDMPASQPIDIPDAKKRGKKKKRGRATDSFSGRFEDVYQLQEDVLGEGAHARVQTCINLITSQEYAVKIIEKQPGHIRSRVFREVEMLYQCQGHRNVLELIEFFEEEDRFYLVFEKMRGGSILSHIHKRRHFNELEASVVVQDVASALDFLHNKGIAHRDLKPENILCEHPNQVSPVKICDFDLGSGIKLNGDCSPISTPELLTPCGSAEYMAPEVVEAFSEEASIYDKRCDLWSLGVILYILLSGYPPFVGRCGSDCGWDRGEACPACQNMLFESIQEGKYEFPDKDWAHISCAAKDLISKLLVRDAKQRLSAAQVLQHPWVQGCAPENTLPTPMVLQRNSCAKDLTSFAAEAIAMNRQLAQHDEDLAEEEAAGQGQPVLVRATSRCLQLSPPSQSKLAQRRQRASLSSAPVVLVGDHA

[4] = biological target: Serine/threonine-protein kinase Nek7 (Homo sapiens) (UniProt Q8TDX7); experiment: Percentage NEK7 activity remaining in the presence of 0.1uM inhibitor
Chain of Serine/threonine-protein kinase Nek7 (Homo sapiens) (Q8TDX7 whole entry, looked up): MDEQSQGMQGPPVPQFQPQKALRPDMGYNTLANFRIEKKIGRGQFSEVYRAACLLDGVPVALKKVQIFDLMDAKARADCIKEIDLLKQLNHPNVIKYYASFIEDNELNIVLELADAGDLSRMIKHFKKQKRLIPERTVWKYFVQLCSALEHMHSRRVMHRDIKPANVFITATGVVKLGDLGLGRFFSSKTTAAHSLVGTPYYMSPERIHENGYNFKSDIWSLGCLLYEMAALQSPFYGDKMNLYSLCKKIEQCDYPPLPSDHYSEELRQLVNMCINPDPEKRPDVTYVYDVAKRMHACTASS

[5] = biological target: Serine/threonine-protein kinase PAK 5 (Homo sapiens) (UniProt Q9P286); experiment: Percentage PAK5 activity remaining in the presence of 0.1uM inhibitor
Chain of Serine/threonine-protein kinase PAK 5 (Homo sapiens) (Q9P286 whole entry, looked up): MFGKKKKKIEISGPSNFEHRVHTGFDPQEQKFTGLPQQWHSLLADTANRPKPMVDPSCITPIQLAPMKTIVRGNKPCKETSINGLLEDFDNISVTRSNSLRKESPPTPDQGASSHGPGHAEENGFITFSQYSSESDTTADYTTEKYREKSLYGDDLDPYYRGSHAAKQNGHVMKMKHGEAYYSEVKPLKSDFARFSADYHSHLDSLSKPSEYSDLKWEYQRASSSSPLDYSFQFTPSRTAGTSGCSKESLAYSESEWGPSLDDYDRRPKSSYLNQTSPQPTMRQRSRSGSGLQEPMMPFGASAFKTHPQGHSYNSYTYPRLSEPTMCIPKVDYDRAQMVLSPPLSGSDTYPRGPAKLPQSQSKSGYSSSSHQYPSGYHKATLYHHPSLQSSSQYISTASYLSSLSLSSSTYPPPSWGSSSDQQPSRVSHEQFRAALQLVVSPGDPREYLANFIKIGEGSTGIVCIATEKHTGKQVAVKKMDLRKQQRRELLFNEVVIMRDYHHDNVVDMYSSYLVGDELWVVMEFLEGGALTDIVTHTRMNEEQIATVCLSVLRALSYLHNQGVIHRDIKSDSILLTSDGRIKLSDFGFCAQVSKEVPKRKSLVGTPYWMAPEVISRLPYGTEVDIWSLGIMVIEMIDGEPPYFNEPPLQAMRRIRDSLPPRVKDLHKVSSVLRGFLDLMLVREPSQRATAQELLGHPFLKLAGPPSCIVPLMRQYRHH

[6] = biological target: T1, Serine/threonine-protein kinase Chk1 (Homo sapiens) (UniProt O14757); experiment: Percentage CHK1 activity remaining in the presence of 0.1uM inhibitor
T1 sequence (whole entry): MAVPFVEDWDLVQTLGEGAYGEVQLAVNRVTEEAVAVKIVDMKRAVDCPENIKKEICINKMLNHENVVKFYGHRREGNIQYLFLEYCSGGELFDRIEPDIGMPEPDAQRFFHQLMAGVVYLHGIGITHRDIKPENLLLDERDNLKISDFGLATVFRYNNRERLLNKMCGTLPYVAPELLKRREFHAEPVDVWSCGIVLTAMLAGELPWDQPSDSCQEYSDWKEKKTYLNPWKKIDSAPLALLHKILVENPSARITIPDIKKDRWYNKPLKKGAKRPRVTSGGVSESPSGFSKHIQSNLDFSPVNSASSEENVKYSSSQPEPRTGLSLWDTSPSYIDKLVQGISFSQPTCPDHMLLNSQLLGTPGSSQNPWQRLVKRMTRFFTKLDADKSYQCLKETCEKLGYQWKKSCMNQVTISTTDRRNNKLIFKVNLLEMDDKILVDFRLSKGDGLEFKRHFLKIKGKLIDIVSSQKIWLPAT

[7] = biological target: Mitogen-activated protein kinase 9 (Homo sapiens, UniProt P45984); experiment: Percentage JNK2 activity remaining in the presence of 0.1uM inhibitor
Chain of Mitogen-activated protein kinase 9 (P45984 whole entry, looked up): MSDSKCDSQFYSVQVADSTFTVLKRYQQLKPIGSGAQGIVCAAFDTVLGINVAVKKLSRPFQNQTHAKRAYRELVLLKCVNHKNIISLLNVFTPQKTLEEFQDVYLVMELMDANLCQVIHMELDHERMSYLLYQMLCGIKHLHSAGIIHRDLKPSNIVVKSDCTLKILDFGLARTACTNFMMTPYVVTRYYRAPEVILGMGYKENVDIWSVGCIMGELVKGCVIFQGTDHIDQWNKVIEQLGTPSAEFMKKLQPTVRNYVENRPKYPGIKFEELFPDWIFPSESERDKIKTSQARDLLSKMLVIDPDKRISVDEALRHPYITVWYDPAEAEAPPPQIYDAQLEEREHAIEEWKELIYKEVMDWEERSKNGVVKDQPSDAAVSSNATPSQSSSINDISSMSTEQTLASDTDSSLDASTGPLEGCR

[8] = biological target: Rho-associated protein kinase 2 (Homo sapiens) (UniProt O75116); experiment: Percentage ROCK2 activity remaining in the presence of 0.1uM inhibitor
Chain of Rho-associated protein kinase 2 (Homo sapiens) (O75116 whole entry, looked up): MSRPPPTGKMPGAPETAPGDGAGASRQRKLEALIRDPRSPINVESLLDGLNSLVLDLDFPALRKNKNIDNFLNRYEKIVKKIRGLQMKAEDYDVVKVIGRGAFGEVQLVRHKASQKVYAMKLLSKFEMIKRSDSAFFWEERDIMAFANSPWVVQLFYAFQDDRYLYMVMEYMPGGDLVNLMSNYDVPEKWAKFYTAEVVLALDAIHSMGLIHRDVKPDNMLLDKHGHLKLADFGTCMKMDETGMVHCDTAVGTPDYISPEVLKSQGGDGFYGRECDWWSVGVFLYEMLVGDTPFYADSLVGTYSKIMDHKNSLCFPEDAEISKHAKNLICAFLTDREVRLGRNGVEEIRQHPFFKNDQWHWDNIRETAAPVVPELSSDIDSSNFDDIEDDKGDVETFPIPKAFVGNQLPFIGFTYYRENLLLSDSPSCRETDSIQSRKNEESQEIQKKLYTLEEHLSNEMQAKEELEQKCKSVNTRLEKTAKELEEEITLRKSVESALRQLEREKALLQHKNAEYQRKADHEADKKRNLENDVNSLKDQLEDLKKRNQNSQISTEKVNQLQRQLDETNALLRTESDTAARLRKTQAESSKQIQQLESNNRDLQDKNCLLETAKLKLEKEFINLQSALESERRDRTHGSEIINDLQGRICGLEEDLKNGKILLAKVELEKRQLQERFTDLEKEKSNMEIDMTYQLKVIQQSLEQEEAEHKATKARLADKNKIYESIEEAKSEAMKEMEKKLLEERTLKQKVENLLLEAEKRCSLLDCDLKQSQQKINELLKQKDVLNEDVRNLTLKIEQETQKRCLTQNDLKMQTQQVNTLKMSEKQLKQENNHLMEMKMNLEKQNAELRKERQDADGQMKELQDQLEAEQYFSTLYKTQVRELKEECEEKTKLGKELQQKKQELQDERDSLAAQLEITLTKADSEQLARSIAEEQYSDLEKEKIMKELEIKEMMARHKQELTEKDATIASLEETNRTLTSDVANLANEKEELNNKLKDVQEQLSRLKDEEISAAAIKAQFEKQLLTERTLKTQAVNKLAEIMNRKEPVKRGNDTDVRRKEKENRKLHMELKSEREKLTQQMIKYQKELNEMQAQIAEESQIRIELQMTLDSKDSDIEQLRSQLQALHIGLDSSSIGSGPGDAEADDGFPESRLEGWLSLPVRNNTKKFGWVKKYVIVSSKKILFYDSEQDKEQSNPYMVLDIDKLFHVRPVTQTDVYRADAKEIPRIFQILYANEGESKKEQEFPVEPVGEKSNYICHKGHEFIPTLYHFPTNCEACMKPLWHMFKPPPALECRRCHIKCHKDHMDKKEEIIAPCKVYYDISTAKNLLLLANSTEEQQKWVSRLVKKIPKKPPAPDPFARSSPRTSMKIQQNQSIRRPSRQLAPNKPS

[9] = biological target: T2, Aurora kinase C (Homo sapiens) (UniProt Q9UQB9); experiment: Percentage Aurora C activity remaining in the presence of 0.1uM inhibitor
T2 sequence (whole entry): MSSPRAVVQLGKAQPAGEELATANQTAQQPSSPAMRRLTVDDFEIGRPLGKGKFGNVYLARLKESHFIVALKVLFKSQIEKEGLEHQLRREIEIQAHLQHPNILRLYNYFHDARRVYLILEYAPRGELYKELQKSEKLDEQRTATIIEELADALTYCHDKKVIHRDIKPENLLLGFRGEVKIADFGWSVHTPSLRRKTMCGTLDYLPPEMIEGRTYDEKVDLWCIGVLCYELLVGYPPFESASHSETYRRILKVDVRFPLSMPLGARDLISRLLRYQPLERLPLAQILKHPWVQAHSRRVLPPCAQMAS

[10] = biological target: Serine/threonine-protein kinase N2 (Homo sapiens) (UniProt Q16513); experiment: Percentage PRK2 activity remaining in the presence of 0.1uM inhibitor
Chain of Serine/threonine-protein kinase N2 (Homo sapiens) (Q16513 whole entry, looked up): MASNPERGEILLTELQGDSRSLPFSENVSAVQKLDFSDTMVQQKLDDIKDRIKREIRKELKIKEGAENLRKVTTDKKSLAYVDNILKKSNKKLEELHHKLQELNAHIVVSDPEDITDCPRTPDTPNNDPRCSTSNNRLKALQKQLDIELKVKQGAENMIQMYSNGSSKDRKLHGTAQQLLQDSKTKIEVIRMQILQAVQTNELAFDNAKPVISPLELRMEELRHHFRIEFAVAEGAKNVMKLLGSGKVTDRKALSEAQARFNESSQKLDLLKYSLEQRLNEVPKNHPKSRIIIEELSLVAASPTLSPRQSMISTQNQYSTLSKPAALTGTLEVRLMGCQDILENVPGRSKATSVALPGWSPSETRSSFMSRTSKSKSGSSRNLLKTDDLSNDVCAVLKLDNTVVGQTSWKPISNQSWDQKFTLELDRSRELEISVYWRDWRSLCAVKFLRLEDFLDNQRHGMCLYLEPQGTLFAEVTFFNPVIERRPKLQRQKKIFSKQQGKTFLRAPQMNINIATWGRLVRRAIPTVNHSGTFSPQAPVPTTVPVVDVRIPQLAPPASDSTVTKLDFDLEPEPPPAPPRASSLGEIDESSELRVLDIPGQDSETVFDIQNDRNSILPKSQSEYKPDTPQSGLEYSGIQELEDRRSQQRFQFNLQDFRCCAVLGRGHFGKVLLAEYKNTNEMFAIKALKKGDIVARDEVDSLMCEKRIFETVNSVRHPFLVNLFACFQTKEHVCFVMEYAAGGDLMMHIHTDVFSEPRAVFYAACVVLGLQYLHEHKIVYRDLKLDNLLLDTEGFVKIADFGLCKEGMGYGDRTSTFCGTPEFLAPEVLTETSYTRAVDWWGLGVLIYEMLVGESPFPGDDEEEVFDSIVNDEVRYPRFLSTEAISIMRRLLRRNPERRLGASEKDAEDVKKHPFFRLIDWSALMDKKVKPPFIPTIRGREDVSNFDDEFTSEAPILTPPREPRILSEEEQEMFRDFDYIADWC

[11] = biological target: cAMP-dependent protein kinase catalytic subunit alpha (Homo sapiens, UniProt P17612); experiment: Percentage PKA activity remaining in the presence of 0.1uM inhibitor
[12] = biological target: T3, Eukaryotic elongation factor 2 kinase (Homo sapiens) (UniProt O00418); experiment: Percentage EF2K activity remaining in the presence of 0.1uM inhibitor
T3 sequence (whole entry): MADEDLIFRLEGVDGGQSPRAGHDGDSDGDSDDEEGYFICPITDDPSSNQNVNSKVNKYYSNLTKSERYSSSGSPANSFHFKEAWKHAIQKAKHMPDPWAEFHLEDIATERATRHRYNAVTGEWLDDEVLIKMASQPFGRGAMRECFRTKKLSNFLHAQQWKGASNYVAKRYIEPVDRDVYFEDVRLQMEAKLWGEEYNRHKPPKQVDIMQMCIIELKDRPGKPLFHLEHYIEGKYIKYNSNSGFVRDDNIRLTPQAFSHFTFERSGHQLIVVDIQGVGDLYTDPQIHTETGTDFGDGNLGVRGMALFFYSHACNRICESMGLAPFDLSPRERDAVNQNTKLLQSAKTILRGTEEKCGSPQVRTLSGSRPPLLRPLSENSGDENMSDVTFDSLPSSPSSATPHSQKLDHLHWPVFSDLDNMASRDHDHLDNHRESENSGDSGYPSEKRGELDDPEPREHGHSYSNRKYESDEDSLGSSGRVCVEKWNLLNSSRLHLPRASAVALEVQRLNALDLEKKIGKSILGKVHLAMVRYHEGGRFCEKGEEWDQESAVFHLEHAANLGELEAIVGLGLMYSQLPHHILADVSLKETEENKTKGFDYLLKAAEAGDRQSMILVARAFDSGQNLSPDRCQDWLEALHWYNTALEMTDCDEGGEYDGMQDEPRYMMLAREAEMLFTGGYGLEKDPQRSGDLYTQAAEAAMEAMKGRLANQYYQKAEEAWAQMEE

Chain of Serine/threonine-protein kinase Chk2 (Homo sapiens) (O96017 whole entry): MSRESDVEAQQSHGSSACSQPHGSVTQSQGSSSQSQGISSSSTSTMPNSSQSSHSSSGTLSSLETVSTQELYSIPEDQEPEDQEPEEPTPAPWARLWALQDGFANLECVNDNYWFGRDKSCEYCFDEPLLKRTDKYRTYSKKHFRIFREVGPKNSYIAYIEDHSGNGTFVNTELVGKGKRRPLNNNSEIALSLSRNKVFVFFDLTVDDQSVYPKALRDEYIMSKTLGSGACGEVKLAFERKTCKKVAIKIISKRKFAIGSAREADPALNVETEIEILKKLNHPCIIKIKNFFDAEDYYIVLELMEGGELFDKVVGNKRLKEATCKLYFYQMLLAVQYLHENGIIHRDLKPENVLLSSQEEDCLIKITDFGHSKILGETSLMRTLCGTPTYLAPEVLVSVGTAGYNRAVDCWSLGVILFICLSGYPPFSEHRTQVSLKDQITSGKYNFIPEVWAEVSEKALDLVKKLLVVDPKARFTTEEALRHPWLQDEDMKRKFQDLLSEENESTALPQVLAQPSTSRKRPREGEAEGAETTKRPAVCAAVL

Structure (SMILES)	Activity [1] [%]	Activity [2] [%]	Activity [3] [%]	Activity [4] [%]	Activity [5] [%]	Activity [6] [%]	Activity [7] [%]	Activity [8] [%]	Activity [9] [%]	Activity [11] [%]	Activity [12] [%]	Activity ([10]; filed as antagonist) [%]	Activity ([1]; filed as antagonist) [%]	also measured
CC(C)CCN1c2nc(Nc3cc(F)c(O)c(F)c3)ncc2N(C)C(=O)C1C (stereo not drawn)	125	96	96	108	90	73	115	84	76	89	88			Activity [10]: 97%
O=C(NCCCNc1nc(Nc2cccc(NC(=O)N3CCCC3)c2)ncc1I)c1cccs1	84			99	81		70			72	93	43		Activity ([2]; filed as antagonist): 46%; Activity ([3]; filed as antagonist): 19%; Activity ([6]; filed as antagonist): 46%; Activity ([8]; filed as antagonist): 28%; Activity ([9]; filed as antagonist): 9%
Cc1n[nH]c2ccc(-c3cncc(OC[C@@H](N)Cc4c[nH]c5ccccc45)c3)cc12		95	80	84	96	99	78		92		94	2	9	Activity ([8]; filed as antagonist): 8%; Activity ([11]; filed as antagonist): 3%
Cn1c2ccccc2c2c3c(c4c5ccccc5n(CCC#N)c4c21)CNC3=O				98			68				100	5	6	Activity ([2]; filed as antagonist): 43%; Activity ([3]; filed as antagonist): 30%; Activity ([5]; filed as antagonist): 6%; Activity ([6]; filed as antagonist): 1%; Activity ([9]; filed as antagonist): 44%; Activity ([11]; filed as antagonist): 50%
CN(C)C[C@@H]1CCn2cc(c3ccccc32)C2=C(C(=O)NC2=O)c2cn(c3ccccc23)CCO1		92	101	104	79	71	99	94	92	59	90	38	44	
CC(C)[C@H](CO)Nc1nc(Nc2cccc(Cl)c2)c2ncn(C(C)C)c2n1 [PURVALANOLA]	89	94	98	105	53	95	96	93	85	79	95			Activity [10]: 81%
Cn1cc(C2=C(c3cn(CCCSC(=N)N)c4ccccc34)C(=O)NC2=O)c2ccccc21		99	103	101	79	59	92	88	77	51	101	8	11	
